{
  "source": "patent US10285994B2",
  "about": "“Method of preventing or treating osteoporosis by neddylation inhibitor” (Chang Gung University, priority 2017, dated 2019)",
  "key": {"[1]": {"test_system": "ovariectomized (OVX) mice", "experiment": "Serum CTX-1 ELISA in OVX + sRANKL mice", "type": "in vivo, mouse", "settings": "10 mg/kg i.p. once daily for 2 weeks, FIG. 6E", "description": "FIGS. 6A-6E are the data depicting the mouse model of ovariectomy-induced osteoporosis, in which the ovariectomized (OVX) mice are respectively treated with sRANKL (1 mg/Kg) in the absence or presence of MLN4924 (10 mg/Kg) according to example 5.1 of the present disclosure. FIG. 6A: Micro computed-tomography (micro-CT) three-dimensional images of the distal femurs of mice respectively treated with the indicated treatments, in which the left panels represent transaxial plane, and the right panels represent coronal plane. FIGS. 6B-6D: micro-CT measurement of trabecular bone parameters, including bone volume/total volume (FIG. 6B), trabecular number (FIG. 6C), and trabecular space (FIG. 6D). […] Values are expressed as mean±SD, N=6 per group. *p<0.05; **p<0.01.\nAll experimental procedures were approved by the Institutional Animal Care and Use Committee of the Chang Gung Memorial Hospital at Chiayi and complied with the Guideline for the Care and Use of Laboratory Animals available through the National Academy of Sciences (IACUC number: 2013100102 and 2015103001). […] Serum levels of cross linked C-telopeptide of type I collagen (CTX-1) (CEA665Mu) was measured by specific ELISA kit (USCN life science incorporation, Wuhan, Hubei, China).\nSince CTX-1 serve as the biomarker for bone resorption, the level of CTX-1 in the serum of mice receiving specified treatments were then determined."}, "MC3T3-E1 cells": {"test_system": "MC3T3-E1 cells", "experiment": "Osteoblast survival, crystal violet staining of MC3T3-E1 cells", "type": "cell-based, mouse", "settings": "MC3T3-E1, osteoblast differentiation medium, 21 days, FIG. 4A", "description": "FIGS. 4A-4B respectively depict the osteogenesis of mouse pre-osteoblast cell line MC3T3-E1 cells incubated in the differentiation medium containing specified concentrations of MLN4924 for 21 days according to example 3 of the present disclosure. FIG. 4A: the growth of MC3T3-E1 cells during osteogenesis is analyzed by crystal violet staining. FIG. 4B: the osteogenesis of MC3T3-E1 cells on day 21 is analyzed by measuring Alizarin Red S stain. Diff: osteoblast differentiation medium. MLN: MLN4924.\nThe mouse pre-osteoblast cell line MC3T3-E1 cells were cultured in osteoblast differentiation medium with or without MLN4924 for 21 days."}, "cathepsin K": {"test_system": "cathepsin K", "experiment": "Cathepsin K activity fluorometric assay, RAW264.7 cells", "type": "cell-based, mouse", "settings": "sRANKL-activated RAW264.7 cells, 7 days, FIG. 2C", "description": "(§1) FIGS. 2A-2D are data collected from RAW264.7 cells respectively incubated in the medium containing sRANKL (50 ng/ml) and specified concentrations of MLN4924 for 7 days according to example 1.2 of the present disclosure. FIG. 2A: the photographs of TRAP staining depicting the differentiation of osteoclasts from RAW264.7 cells. FIG. 2B: after the differentiation of osteoclasts in Corning Osteo Surface, the cells were removed, and the resorbed areas for confirming osteoclast activity were analyzed by 1% toluidine blue staining. FIG. 2C: the culture medium is subject to Biovision Cathepsin K Activity Fluorometric Assay Kit for the analysis of cathepsin K activity. FIG. 2D: the effect of effective doses of MLN4924 on the viability of RAW264.7 cells is evaluated by MTT assay. Scale bar represents 100 μm. Data are expressed as mean±SD where *p<0.05.\n(§2) The pre-osteoclasts and RAW264.7 cells were seeded into Corning Osteo Surface Assay 96-wells plate (Corning, Kennebunk, Me.). Twenty-four hours later, the cells were treated with sRANKL (50 ng/ml) and specified concentrations of MLN4924 for 7 days. The cells were then harvested so as to evaluate the cathepsin K activity by use of Biovision Cathepsin K Activity Fluorometric Assay Kit (Biovision, Milpitas, Calif.). The Corning Osteo surface was stained with 1% toluidine blue for 24 hours and washed with deionized water twice. […]"}, "RAW264.7 cells": {"test_system": "RAW264.7 cells", "experiment": "Pit assay on Corning Osteo Surface, RAW264.7-derived osteoclasts", "type": "cell-based, mouse", "settings": "sRANKL-activated RAW264.7 cells, 7 days, FIG. 2B", "description": "as §1, §2"}},
  "data": [
    {"smiles": "NS(=O)(=O)OC[C@@H]1C[C@@H](n2ccc3c(N[C@H]4CCc5ccccc54)ncnc32)C[C@@H]1O", "note": "[MLN4924, (1S,2S,4R)-4-(4-((1S)-2,3-Dihydro-1H-inden-1-ylamino)-7H-pyrrolo(2,3-d)pyrimidin-7-yl)-2-hydroxycyclopentyl) methyl sulphamate]", "values": [
      {"measurement": "serum CTX-1 level", "setting": "[1]", "result": "significantly rescued the OVX+sRANKL-stimulated serum CTX-1 level upregulation"},
      {"measurement": "survival of osteoblasts (crystal violet)", "setting": "MC3T3-E1 cells", "result": "neither the survival of osteoblasts (FIG. 4A), nor the differentiation of osteoblasts (FIG. 4B) was affected"},
      {"measurement": "osteolytic enzyme cathepsin K activity of osteoclasts", "setting": "cathepsin K", "result": "significantly inhibited"},
      {"measurement": "bone matrix resorption of osteoclasts", "setting": "RAW264.7 cells", "result": "significantly inhibited"}
    ]}
  ]
}
